Measurements taken from US10399966B2, “Compounds for treatment of trypanosomes and neurological pathogens and uses thereof” (The University of North Carolina at Chapel Hill, priority 2016, dated 2019).
Where two headings read alike, the source gives them in different places.

What was measured:
[1] = Efficacy PK blood samples, chronic model; assay type: in vivo, mouse; conditions: 50 mg/kg po b.i.d.
Description: In a model of the chronic phase of HAT, compound 1 was administered to five mice infected with T. b. brucei TREU667 at 50 mg/kg/po b.i.d.×10 days, beginning 21 days post-infection. […] Efficacy PK blood samples were collected from three of the five mice prior to dose 15, and at 1 h and 6 h post-dose. Average plasma levels of the test compound were 15.8±8.7 μM (pre-dose), […] (1 h), and 26.7±7.1 μM (6 h). Compound 1 attained 5/5 cures as determined by the absence of detectable parasitemia in any of the treated mice through 180 days post-infection (FIG. 2). No mice receiving vehicle alone had spontaneous cures.

[2] = Distribution between mouse plasma and brain (brain penetration, ip); assay type: in vivo
Procedure, shortened: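 Mice (n=3) received a single 5 mg/kg ip dose in 7% Tween 80, 3% ethanol, 5% DMSO, 0.9% saline and were sacrificed 1 h post-dose. Plasma and acetonitrile brain homogenates analysed by LC/MS/MS; brain concentration corrected for 2.5% vasculature volume, assuming 1 g = 1 mL.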

[3] = Rat pharmacokinetics, oral administration; assay type: in vivo; set-up: AUC(0-inf): unit not given here; conditions: 20 mg/kg; for AUC(0-inf) / Cmax / Tmax: rat, in vivo, po
Description: The pharmacokinetics of compound 1 was tested in rats after intravenous and oral administration. Two rats were administered 5 mg/kg compound 1 intravenously in a vehicle consisting of 7% Tween 80, 3% EtOH, 5% DMSO in saline. Two rats were administered 20 mg/kg compound 1 orally in a vehicle consisting of 5% DMSO, 0.5% Tween 80, 1% methylcellulose in water. The results are shown in Table 4 and FIGS. 3A-3B and 4A-4B.

[4] = Mouse oral pharmacokinetics; assay type: in vivo
Description: […] Experiments were performed with groups of three mice per compound. Plasma was separated and extracted with acetonitrile for measurements of compound concentrations by liquid chromatography/tandem mass spectrometry.

[5] = system: Plasmodium falciparum; assay: Antimicrobial activity against Plasmodium falciparum; assay type: cell-based; conditions: Table 1, Plasmodium falciparum
[6] = Metabolic stability in human liver microsomes; assay type: in vitro ADME
Description: Metabolic stability was evaluated using liver microsomes derived from mouse and human sources. Microsomal incubations were carried out according to a protocol described previously (Wang et al., Antimicrob. Agents Chemother. 54:2507 (2010)) with modifications. Briefly, substrate stock solutions were prepared in DMSO and DMSO content was kept at 0.5% (v/v) in final incubations. Incubation mixtures ([…]), liver microsomes (0.5 mg/mL) from mouse (pool of 1000, CD-1 male mouse) or human (pool of 50, mixed gender) (XenoTech LLC, Lenexa, Kans.) in a phosphate buffer (100 mM, pH 7.4) containing 3.3 mM MgCl2. After a 5-minute pre-equilibration period at 37° C., reactions (in triplicate) were initiated by adding the NADPH cofactor (1 mM). For NADPH-independent reactions, the cofactor was replaced with water. Aliquots (10 μl) of the reaction mixtures were removed at 0, 15, 30, and 60 minutes and individually mixed with 200 μL of ice-cold acetonitrile containing internal standard. The mixtures were vortex-mixed, and precipitated protein was removed by centrifugation at 2,250×g for 15 min. The supernatant fractions were dried using a 96-well microplate evaporator (Apricot Designs Inc., Covina, Calif.) under N2 at 50° C. and reconstituted with 100 μL 50% methanol containing 0.1% trifluoroacetic acid before UPLC-MS/MS analysis. In vitro half-life (t1/2) was obtained by analyzing the substrate concentration vs. incubation time curve using the one-phase exponential decay model (GraphPad Prism® 5.0, San Diego, Calif.).

[7] = system: Trypanosoma cruzi; assay: Efficacy against T. cruzi in vitro; assay type: cell-based
[8] = Efficacy PK blood samples, acute model; assay type: in vivo, mouse; conditions: 50 mg/kg po b.i.d.
Description: In a model of the acute phase of HAT, five mice infected with T. b. rhodesiense STIB900 were given the test compound at 50 mg/kg po b.i.d.×4 days, beginning 2 days post-infection. Efficacy PK blood samples were collected from three of the five mice prior to dose 7, and at 1 h and 6 h post-dose. Average plasma levels of the test compound were 9.1±7.6 μM (pre-dose), 18.6±7.2 μM (1 h), and 15.0±4.2 μM (6 h). Compound 1 attained 5/5 cures as determined by the absence of detectable parasitemia in any of the treated mice 60 days post-infection (FIG. 1).

[9] = Table 14, mice, single ip dose 5 mg/kg, one hour post-dose, ± SEM of 3 mice (compound 3: 6 mice)

O=C(Nc1ccc2sc(-c3ccc(F)c(F)c3)nc2c1)N1CC[C@H](F)C1 [Compound 1, (S)-2-(3,4-Difluorophenyl)-5-(3-fluoro-N-pyrrolidylamido)benzothiazole]
Average plasma levels ([1]; 1 h post dose 15): 23.1 ± 603 µM | Average plasma levels ([1]; 6 h post dose 15): 26.7 ± 7.1 µM | Average plasma levels ([1]; prior to dose 15 (pre-dose)): 15.8 ± 8.7 µM | Average brain/plasma ratio ([2]; Table 2, mouse, n = 3): 4.0000 ± 0.624 | Average [compound] brain ([2]; Table 8, groups of 3 mice (compound 3: ± SEM of 6 mice)): 9.07 ± 6.88 µM | Brain/plasma ratio ([2]; Table 14, mice, single ip dose 5 mg/kg, one hour post-dose): 4.0 | [compound]Brain [2, 9]: 9.07 ± 3.973 µM | [compound]Plasma [2, 9]: 2.27 ± 0.888 µM | concentration at 1 h ([2]; mouse, in vivo, 5 mg/kg, Table 2, mouse, n = 3, read-out: Average concentration in brain): 9.07 ± 6.88 µM | concentration at 1 h ([2]; mouse, in vivo, 5 mg/kg, Table 2, mouse, n = 3, read-out: Average concentration in plasma): 2.27 ± 1.54 µM | concentration at 60 min ([2]; mouse, in vivo, 5 mg/kg, Table 5 r15, mouse brain penetration (60 min), n = 3): 2.27 ± 1.54 µM | concentration at 1 h ([2]; mouse, in vivo, 5 mg/kg, Table 8, groups of 3 mice (compound 3: ± SEM of 6 mice), read-out: Average [compound] plasma): 2.27 ± 1.54 µM | Apparent BA ([3]; Mean ± SEM (n = 2)): 116.85% | Apparent BA ([3]; Rat 3): 110.29% | Apparent BA ([3]; Rat 4): 123.40% | AUC(0-inf) ([3]; Mean ± SEM (n = 2)): 6270 | Cmax ([3]; Mean ± SEM (n = 2)): 8.92 µM | Tmax ([3]; Mean ± SEM (n = 2)): 7 h | AUC(0-inf) ([3]; Rat 3): 5770 | Cmax ([3]; Rat 3): 7.31 µM | Tmax ([3]; Rat 3): 8 h | AUC(0-inf) ([3]; Rat 4): 6770 | Cmax ([3]; Rat 4): 10.5 µM | Tmax ([3]; Rat 4): 6 h | Mouse oral PK Tlast ([4]; Table 5): 1440 min | Mouse oral PK Average AUC ([4]; Table 5, n = 3): 13217 ± 2156 (n = 3) min * μmol/L | AUC0 min-∞ ([4]; Table 13, mice, single 50 mg/kg oral gavage, vehicle Phosal 53 MCT(60%), PEG400 (30%), EtOH (10%)): 14673 ± 2833 µM·min | Cmax ([4]; Table 13, mice, single 50 mg/kg oral gavage, vehicle Phosal 53 MCT(60%), PEG400 (30%), EtOH (10%), read-out: Cmax): 18.6 ± 5.54 µM | Cmax ([4]; Table 13, mice, single 50 mg/kg oral gavage, vehicle Tween 80 (7%), EtOH (3%), DMSO (5%) in 0.9% NaCl, ± SEM of 3 mice, 50 mg/kg, read-out: Cmax): 23.3 µM | AUC0 min-∞ ([4]; Table 13, mice, single 50 mg/kg oral gavage, vehicle methylcellulose cP 400 (0.5%), Tween 80 (0.5%) in water): 6352 ± 469 µM·min | Cmax ([4]; Table 13, mice, single 50 mg/kg oral gavage, vehicle methylcellulose cP 400 (0.5%), Tween 80 (0.5%) in water, read-out: Cmax): 8.54 ± 0.41 µM | percent of the Cmax remaining ([4]; mouse oral 50 mg/kg, 24 h time point): Less than 1% | Cmax ([4]; mouse, plasma, po, 50 mg/kg, Table 5, n = 3, read-out: Mouse oral PK Average Cmax): 23.3 ± 5.22 µM | Tmax ([4]; mouse, plasma, po, 50 mg/kg, Table 5, read-out: Mouse oral PK Tmax (converted)): 2 h | EC50 [5]: 16700 nM | Human microsomes, percentage of compound remaining ([6]; Table 12, after 60 min (where t1/2 > 60 min)): 53% | half-life at 1.5 μM ([6]; both sexes, human, liver microsomes, pH 7.4, Table 12, 37° C., NADPH (1 mM), microsomes 0.5 mg/mL, test compounds 1.5 μM, read-out: Human microsomes t1/2): > 1 h | half-life at 3 μM ([6]; both sexes, liver microsomes, pH 7.4, human microsomes, read-out: microsomal half-life): 1 h | EC50 ([7]; Table 1, Trypanosoma cruzi, read-out: EC50): 118 nM | EC90 ([7]; Table 1, Trypanosoma cruzi, read-out: EC90): 178 nM | EC50 ([7]; Trypanosoma cruzi, Table 6, read-out: T. cruzi EC50): 58.5 nM | EC50 ([7]; Trypanosoma cruzi, Table 10, read-out: T.cruzi EC50): 118 nM | EC90 ([7]; Trypanosoma cruzi, Table 10, read-out: T.cruzi EC90): 178 nM | Average plasma levels ([8]; 1 h post dose 7): 18.6 ± 7.2 µM | Average plasma levels ([8]; 6 h post dose 7): 15.0 ± 4.2 µM | Average plasma levels ([8]; prior to dose 7 (pre-dose)): 9.1 ± 7.6 µM
